{"source": "patent US20110201603A1", "about": "“Novel Acylaminobenzamide Derivatives” (Bayer CropScience AG, priority 2008, published 2011)", "key": {"[1]": {"test_system": "tobacco cutworm (Spodoptera litura) larvae", "experiment": "Test against tobacco cutworm (Spodoptera litura) larvae, leaf dip", "format": "in vivo", "settings": "active compound concentration of 100 ppm; third-instar larvae on sweet potato leaves; after 7 days", "protocol": "(§1) Unless not mentioned otherwise, the test solutions were prepared as follows:\n(§2) Containing as solvent: Dimethylformamide, 3 parts by weight; and as emulsifier: Polyoxyethylene alkyl phenyl ether, 1 part by weight\n(§3) To prepare the test solution, 1 part by weight of an active compound is mixed with the above-mentioned amount of solvent containing the above-mentioned amount of emulsifier, and the mixture is diluted with water to the desired concentration.\nThe leaves of sweet potato were immersed in the test solution at the appropriate concentration, and the leaves were dried in air. The leaves were then placed in a petri dish having a diameter of 9 cm, and ten third-instar larvae of tobacco cutworm were released therein. The petri dish was placed in a temperature-controlled chamber at 25° C. After 2 days and 4 days sweet potato leaves were additionally added. After 7 days, the number of dead larvae was counted to calculate the insecticidal activity. An insecticidal activity of 100% means that all larvae were killed, whereas an insecticidal activity of 0% means that no larva was killed. In the current test, the results of two petri dishes for each partition were averaged."}, "[2]": {"test_system": "cucurbit leaf beetle (Aulacophora femoralis)", "experiment": "Test against cucurbit leaf beetle (Aulacophora femoralis), leaf dip", "format": "in vivo", "settings": "active compound concentration of 100 ppm; second-instar larvae on cucumber leaves; after 7 days", "protocol": "as §1, §2, §3\nCucumber leaves were immersed in the test solution at the appropriate concentration, and the leaves were dried in air. The leaves were then placed in a plastic cup containing sterilized black soil, and five second-instar larvae of cucurbit leaf beetle were released therein. The plastic cup was placed in a temperature-controlled chamber at 25° C. After 7 days, the number of dead larvae was counted, and thus the insecticidal activity was calculated. An insecticidal activity of 100% means that all beetles were killed, whereas an insecticidal activity of 0% means that no beetle was killed."}}, "data": [{"smiles": "O=C(Nc1c(Br)cc(C(c2ccccc2)(n2ccc(C(F)(F)F)n2)C(F)(F)F)cc1Br)c1cccc(NC(=O)c2cccnc2Cl)c1", "note": "(single isomer, unassigned) [2-99]", "values": [{"measurement": "insecticidal activity", "setting": "[1]", "result": 100, "unit": "%"}]}, {"smiles": "CCOC(c1cc(I)c(NC(=O)c2cccc(NC(=O)CCCl)c2)c(I)c1)(C(F)(F)F)C(F)(F)F", "note": "[1-23]", "values": [{"measurement": "insecticidal activity", "setting": "[1]", "result": 100, "unit": "%"}]}, {"smiles": "Cc1cc(C(n2cnc(C(F)(F)F)c2)(C(F)(F)F)C(F)(F)F)cc(C)c1NC(=O)c1cccc(NC(=O)c2cccnc2Cl)c1", "note": "[2-142]", "values": [{"measurement": "insecticidal activity", "setting": "[1]", "result": 100, "unit": "%"}]}, {"smiles": "CCc1cc(C(n2cc(Cl)cn2)(C(F)(F)F)C(F)(F)F)cc(C)c1NC(=O)c1cccc(NC(=O)c2c(F)cccc2F)c1", "note": "[2-40]", "values": [{"measurement": "insecticidal activity", "setting": "[1]", "result": 100, "unit": "%"}]}, {"smiles": "Cc1cc(C(n2cnc(C(F)(F)F)n2)(C(F)(F)F)C(F)(F)F)cc(C)c1NC(=O)c1cccc(NC(=O)c2cccnc2Cl)c1", "note": "[2-153]", "values": [{"measurement": "insecticidal activity", "setting": "[1]", "result": 100, "unit": "%"}, {"measurement": "insecticidal activity", "setting": "[2]", "result": 100, "unit": "%"}]}, {"smiles": "CCc1cc(C(n2cncn2)(C(F)(F)F)C(F)(F)F)cc(C)c1NC(=O)c1cccc(NC(=O)c2cccnc2Cl)c1", "note": "[2-149]", "values": [{"measurement": "insecticidal activity", "setting": "[1]", "result": 100, "unit": "%"}]}, {"smiles": "CCc1cc(C(Oc2cccc(C(F)(F)F)c2)(C(F)(F)F)C(F)(F)F)cc(C)c1NC(=O)c1cccc(NC(=O)c2cccnc2Cl)c1", "note": "[1-110]", "values": [{"measurement": "insecticidal activity", "setting": "[1]", "result": 100, "unit": "%"}]}, {"smiles": "CCc1cc(C(n2cc(Cl)cn2)(C(F)(F)F)C(F)(F)F)cc(C)c1NC(=O)c1cccc(NC(=O)c2cc(F)ccc2F)c1", "note": "[2-39]", "values": [{"measurement": "insecticidal activity", "setting": "[1]", "result": 100, "unit": "%"}]}, {"smiles": "Cc1cc(C(n2nc(C(F)(F)F)cc2C(F)(F)F)(C(F)(F)F)C(F)(F)F)cc(C)c1NC(=O)c1cccc(NC(=O)c2cccnc2F)c1", "note": "[2-125]", "values": [{"measurement": "insecticidal activity", "setting": "[1]", "result": 100, "unit": "%"}]}, {"smiles": "CCc1cc(C(ON=Cc2ccc(OC)cc2)(C(F)(F)F)C(F)(F)F)cc(C)c1NC(=O)c1cccc(NC(=O)c2cccnc2Cl)c1", "note": "[1-150]", "values": [{"measurement": "insecticidal activity", "setting": "[1]", "result": 100, "unit": "%"}]}, {"smiles": "Cc1cc(C(Oc2cccc(C(F)(F)F)c2)(C(F)(F)F)C(F)(F)F)cc(C)c1NC(=O)c1cccc(NC(=O)c2cccnc2Cl)c1", "note": "[1-167]", "values": [{"measurement": "insecticidal activity", "setting": "[1]", "result": 100, "unit": "%"}]}, {"smiles": "Cc1cc(C(Oc2ccnc(C(F)(F)F)c2)(C(F)(F)F)C(F)(F)F)cc(C)c1NC(=O)c1cccc(NC(=O)c2cccnc2Cl)c1", "note": "[1-111]", "values": [{"measurement": "insecticidal activity", "setting": "[1]", "result": 100, "unit": "%"}]}, {"smiles": "CCc1cc(C(n2cc(Cl)cn2)(C(F)(F)F)C(F)(F)F)cc(C)c1NC(=O)c1cccc(NC(=O)c2cccc(F)c2)c1", "note": "[2-35]", "values": [{"measurement": "insecticidal activity", "setting": "[1]", "result": 100, "unit": "%"}]}, {"smiles": "CCc1cc(C(ON=Cc2ccc(C)cc2)(C(F)(F)F)C(F)(F)F)cc(C)c1NC(=O)c1cccc(NC(=O)c2cccnc2Cl)c1", "note": "[1-149]", "values": [{"measurement": "insecticidal activity", "setting": "[1]", "result": 100, "unit": "%"}]}, {"smiles": "Cc1cc(C(n2ccc(C(F)(F)F)n2)(C(F)(F)F)C(F)(F)F)cc(C)c1NC(=O)c1cccc(NC(=O)c2cccnc2F)c1", "note": "[2-98]", "values": [{"measurement": "insecticidal activity", "setting": "[1]", "result": 100, "unit": "%"}]}, {"smiles": "Cc1cc(C(n2ccc(C(F)(F)C(F)(F)F)n2)(C(F)(F)F)C(F)(F)F)cc(C)c1NC(=O)c1cccc(NC(=O)c2cccnc2Cl)c1", "note": "[2-107]", "values": [{"measurement": "insecticidal activity", "setting": "[1]", "result": 100, "unit": "%"}]}, {"smiles": "Cc1cc(C(Oc2ccc(C#N)cc2)(C(F)(F)F)C(F)(F)F)cc(C)c1NC(=O)c1cccc(NC(=O)c2cccnc2Cl)c1", "note": "[1-180]", "values": [{"measurement": "insecticidal activity", "setting": "[1]", "result": 100, "unit": "%"}]}, {"smiles": "Cc1cc(C(n2ncnn2)(C(F)(F)F)C(F)(F)F)cc(C)c1NC(=O)c1cccc(NC(=O)c2cccnc2Cl)c1", "note": "[2-154]", "values": [{"measurement": "insecticidal activity", "setting": "[1]", "result": 100, "unit": "%"}]}, {"smiles": "Cc1cc(C(n2ccc(C(Cl)Cl)n2)(C(F)(F)F)C(F)(F)F)cc(C)c1NC(=O)c1cccc(NC(=O)c2cccnc2Cl)c1", "note": "[2-106]", "values": [{"measurement": "insecticidal activity", "setting": "[1]", "result": 100, "unit": "%"}]}, {"smiles": "Cc1cc(C(n2nc(C(F)(F)F)cc2C(F)(F)F)C(F)(F)F)cc(C)c1NC(=O)c1cccc(NC(=O)c2cccnc2Cl)c1", "note": "(centres unmarked) [2-123, N-{3-[(4-{1-[3,5-bis(trifluoromethyl)-1H-pyrazol-1-yl)-2,2,2-trifluoroethyl}-2,6-dimethylphenyl)carbamoyl]phenyl}-2-chloropyridine-3-carboxamide]", "values": [{"measurement": "insecticidal activity", "setting": "[1]", "result": 100, "unit": "%"}]}, {"smiles": "CCc1cc(C(n2cc(Cl)cn2)(C(F)(F)F)C(F)(F)F)cc(C)c1NC(=O)c1cccc(NC(=O)c2ccccc2F)c1", "note": "[2-30]", "values": [{"measurement": "insecticidal activity", "setting": "[1]", "result": 100, "unit": "%"}]}, {"smiles": "Cc1cc(C(n2cc(I)cn2)(C(F)(F)F)C(F)(F)F)cc(C)c1NC(=O)c1cccc(NC(=O)c2cccnc2Cl)c1", "note": "[2-95]", "values": [{"measurement": "insecticidal activity", "setting": "[1]", "result": 100, "unit": "%"}]}, {"smiles": "Cc1cc(C(n2ccc(Cl)n2)(C(F)(F)F)C(F)(F)F)cc(C)c1NC(=O)c1cccc(NC(=O)c2cccnc2Cl)c1", "note": "[2-7]", "values": [{"measurement": "insecticidal activity", "setting": "[2]", "result": 100, "unit": "%"}]}, {"smiles": "Cc1cc(C(n2cc(Br)c(Br)n2)(C(F)(F)F)C(F)(F)F)cc(C)c1NC(=O)c1cccc(NC(=O)c2cccnc2Cl)c1", "note": "[2-115]", "values": [{"measurement": "insecticidal activity", "setting": "[1]", "result": 100, "unit": "%"}]}, {"smiles": "CCc1cc(C(N2CC=CC2)(C(F)(F)F)C(F)(F)F)cc(C)c1NC(=O)c1cccc(NC(=O)c2cccnc2Cl)c1", "note": "[2-170]", "values": [{"measurement": "insecticidal activity", "setting": "[1]", "result": 100, "unit": "%"}]}, {"smiles": "CCc1cc(C(Oc2ccnc(C(F)(F)F)c2)(C(F)(F)F)C(F)(F)F)cc(C)c1NC(=O)c1cccc(NC(=O)c2cccnc2Cl)c1", "note": "[1-112]", "values": [{"measurement": "insecticidal activity", "setting": "[1]", "result": 100, "unit": "%"}]}, {"smiles": "CCc1cc(C(ON=Cc2ccccc2)(C(F)(F)F)C(F)(F)F)cc(C)c1NC(=O)c1cccc(NC(=O)c2cccnc2Cl)c1", "note": "[1-125]", "values": [{"measurement": "insecticidal activity", "setting": "[1]", "result": 100, "unit": "%"}]}, {"smiles": "Cc1cc(C(Oc2ccc(Cl)cc2)(C(F)(F)F)C(F)(F)F)ccc1NC(=O)c1cccc(NC(=O)c2cccnc2Cl)c1", "note": "[1-201]", "values": [{"measurement": "insecticidal activity", "setting": "[1]", "result": 100, "unit": "%"}]}, {"smiles": "CSCCOC(c1cc(I)c(NC(=O)c2cccc(NC(=O)c3cccnc3Cl)c2)c(I)c1)(C(F)(F)F)C(F)(F)F", "note": "[1-104]", "values": [{"measurement": "insecticidal activity", "setting": "[1]", "result": 100, "unit": "%"}]}, {"smiles": "CCc1cc(C(n2cc(Cl)cn2)(C(F)(F)F)C(F)(F)F)cc(C)c1NC(=O)c1cccc(NC(=O)c2ccc(F)cc2F)c1", "note": "[2-38]", "values": [{"measurement": "insecticidal activity", "setting": "[1]", "result": 100, "unit": "%"}]}, {"smiles": "CCc1cc(C(n2cc(Cl)cn2)(C(F)(F)F)C(F)(F)F)cc(C)c1NC(=O)c1cccc(NC(=O)c2cccc(F)c2F)c1", "note": "[2-37]", "values": [{"measurement": "insecticidal activity", "setting": "[1]", "result": 100, "unit": "%"}]}, {"smiles": "CCc1cc(C(n2cc(Cl)cn2)(C(F)(F)F)C(F)(F)F)cc(C)c1NC(=O)c1cccc(NC(=O)c2ccc(F)cc2)c1", "note": "[2-36]", "values": [{"measurement": "insecticidal activity", "setting": "[1]", "result": 100, "unit": "%"}]}, {"smiles": "O=C(Nc1c(Br)cc(C(c2ccccc2)(n2ccc(C(F)(F)F)n2)C(F)(F)F)cc1Br)c1cccc(NC(=O)c2cccnc2Cl)c1", "note": "(single isomer, unassigned) [2-100]", "values": [{"measurement": "insecticidal activity", "setting": "[2]", "result": 100, "unit": "%"}]}, {"smiles": "Cc1cc(C(n2ccc(Br)n2)(C(F)(F)F)C(F)(F)F)cc(C)c1NC(=O)c1cccc(NC(=O)c2cccnc2Cl)c1", "note": "[2-76, N-[3-({4-[2-(3-bromo-1H-pyrazol-1-yl)-1,1,1,3,3,3-hexafluoropropan-2-yl]-2,6-dimethylphenyl}carbamoyl)phenyl]-2-chloropyridine-3-carboxamide]", "values": [{"measurement": "insecticidal activity", "setting": "[1]", "result": 100, "unit": "%"}]}, {"smiles": "CCc1cc(C(Oc2ccc(Cl)nc2)(C(F)(F)F)C(F)(F)F)cc(C)c1NC(=O)c1cccc(NC(=O)c2cccnc2Cl)c1", "note": "[1-181]", "values": [{"measurement": "insecticidal activity", "setting": "[1]", "result": 100, "unit": "%"}]}, {"smiles": "CCc1cc(C(Oc2ccccc2)(C(F)(F)F)C(F)(F)F)cc(C)c1NC(=O)c1cccc(NC(=O)c2cccnc2Cl)c1", "note": "[1-105]", "values": [{"measurement": "insecticidal activity", "setting": "[2]", "result": 100, "unit": "%"}]}, {"smiles": "Cc1cc(C(n2cc(Cl)c(C(F)(F)F)n2)(C(F)(F)F)C(F)(F)F)cc(C)c1NC(=O)c1cccc(NC(=O)c2cccnc2Cl)c1", "note": "[2-118]", "values": [{"measurement": "insecticidal activity", "setting": "[1]", "result": 100, "unit": "%"}]}, {"smiles": "CCCOC(c1cc(I)c(NC(=O)c2cccc(NC(=O)c3ccc(C)nc3Cl)c2)c(I)c1)(C(F)(F)F)C(F)(F)F", "note": "[1-63]", "values": [{"measurement": "insecticidal activity", "setting": "[1]", "result": 100, "unit": "%"}]}, {"smiles": "CCc1cc(C(OCC(F)(F)F)(C(F)(F)F)C(F)(F)F)cc(C)c1NC(=O)c1cccc(N)c1", "note": "[11-26]", "values": [{"measurement": "insecticidal activity", "setting": "[1]", "result": 100, "unit": "%"}]}, {"smiles": "Cc1cc(C(n2cc(I)c(C(F)(F)F)n2)(C(F)(F)F)C(F)(F)F)cc(C)c1NC(=O)c1cccc(NC(=O)c2cccnc2Cl)c1", "note": "[2-119]", "values": [{"measurement": "insecticidal activity", "setting": "[2]", "result": 100, "unit": "%"}]}]}
